The source of these data is patent publication US20230357248A1, “PYRROLOPYRIMIDINE COMPOUND AS BTK INHIBITOR AND USE THEREOF” (MEDSHINE DISCOVERY INC., priority 2019, published 2023).

The target of one series is BTK^C481S (Homo sapiens (Human), UniProt Q06187, C481S). The series can be described thus: BTK enzyme activity assay. It is filed as biochemical. The settings on record: 200 μM ATP; 33P-ATP, filter-binding method. As to the method: The specific assay process of BTK enzyme activity assay is as follows: Buffer: 20 mM 2-[4-(2-hydroxyethyl)-1-piperazinyl]ethanesulfonic acid (Hepes) (pH 7.5), 10 mM magnesium chloride, 1 mM ethylenebis(oxyethylenenitrilo)tetraacetic acid (EGTA), 0.02% polyoxyethylene dodecyl ether (Brij35), 0.02 mg/mL BSA, 0.1 mM sodium vanadate (Na3VO4), 2 mM dithiothreitol (DTT), 1% DMSO, 200 μM adenosine triphosphate (ATP). • 1. The substrate was prepared in freshly prepared reaction buffer; • 2. The required cofactor was added to the above-mentioned substrate solution; • 3. The kinase BTK^C481S was added to the above-mentioned substrate solution and mixed well; • 4. The compound dissolved in DMSO was added to the kinase reaction mixture by Echo550 (Acoustic technology; nanoliter range), and the mixture was incubated at room temperature for 20 minutes; • 5. ^33P-ATP (specific radioactivity of 10 μCi/μL) was added to the reaction mixture to initiate the reaction; • 6. The mixture was incubated at room temperature for 2 hours; • 7. The radioactivity was detected by filter-binding method; • 8. Kinase activity data represented the percentage of remaining kinase activity in the assay sample compared to the vehicle (dimethyl sulfoxide) reaction.
Sequence of BTK^C481S (Q06187 whole entry C481S): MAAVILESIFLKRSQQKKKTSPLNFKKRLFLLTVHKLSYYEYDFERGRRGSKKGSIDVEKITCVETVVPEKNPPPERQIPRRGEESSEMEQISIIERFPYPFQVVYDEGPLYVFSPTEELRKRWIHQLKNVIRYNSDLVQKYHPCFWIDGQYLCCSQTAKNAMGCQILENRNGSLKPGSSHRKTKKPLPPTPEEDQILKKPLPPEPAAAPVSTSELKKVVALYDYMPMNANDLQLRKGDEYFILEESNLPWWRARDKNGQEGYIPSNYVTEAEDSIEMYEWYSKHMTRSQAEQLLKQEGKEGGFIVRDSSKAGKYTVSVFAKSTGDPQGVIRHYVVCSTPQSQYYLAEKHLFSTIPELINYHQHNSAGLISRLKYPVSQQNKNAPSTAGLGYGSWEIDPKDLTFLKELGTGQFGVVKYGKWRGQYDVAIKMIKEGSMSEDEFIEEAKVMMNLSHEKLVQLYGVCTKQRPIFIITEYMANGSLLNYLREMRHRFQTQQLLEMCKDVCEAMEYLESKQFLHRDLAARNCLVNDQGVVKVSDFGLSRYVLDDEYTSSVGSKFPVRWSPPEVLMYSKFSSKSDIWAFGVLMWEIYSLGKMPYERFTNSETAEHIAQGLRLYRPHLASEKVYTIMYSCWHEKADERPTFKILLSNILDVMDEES

Series [1] in a line: Plasma protein binding (PPB) assay, M. It is filed as in vitro ADME. The settings on record: mouse, dialysis 4 hr 37° C. As to the method: Assay procedure: 995 μL of blank plasma of various genera were weighed, and 5 μL of assay compound working solution (400 μM) or warfarin working solution (400 μM) was added so that the final concentrations of the assay compound and warfarin in plasma sample were each 2 μM. The samples were mixed thoroughly. The final concentration of DMSO (the organic phase) was 0.5%. 50 μL of the plasma samples of the assay compound and warfarin were pipetted to a sample receiving plate (in triplicate), and the corresponding volume of corresponding blank plasma or buffer was added immediately, so that the final volume in each sample well was 100 μL, wherein the volume ratio of plasma:dialysis buffer was 1:1. 500 μL of stop solution was then added to these samples. These samples were used as T0 samples for determination of recovery and stability. […] All samples were subjected to protein precipitation, and then analyzed by LC/MS/MS. Bound rate and recovery rate of protein were calculated using the following formulae: % Unbound=100*F/T, % Bound=100−% Unbound, % Recovery=100*(F+T)/T0 (wherein F is the peak area ratio of the compound in the dialysate after 4 h of dialysis; T is the peak area ratio of the compound in the plasma after 4 h of dialysis; To is the peak area ratio of the compound in the plasma sample at time zero).

In general, IC50 refers to the midpoint of a concentration-inhibition curve. Read a high IC50 as weaker potency in that assay. Broadly, the fraction unbound is free concentration divided by total concentration. Higher therefore signals much free substance. In the case of `CO[C@@H]1C[C@@H](CO)OC[C@@H]1Nc1ncnc2[nH]cc(C(=O)c3ccc(Oc4ccccc4)cc3Cl)c12` [Compound 4], the IC50 at BTK^C481S is 7.3 nM. In series [1], this compound displayed a fraction unbound at 4 h, 2 μM of 0.004.
